{
  "source": "patent US9526785B2",
  "about": "“Pharmaceuticals for oral delivery” (Enteris BioPharma, Inc., priority 2013, dated 2016)",
  "assay": "Tigecycline plasma PK after IV bolus in anesthetized rats",
  "format": "in vivo",
  "conditions": "female, Sprague-Dawley, rat",
  "procedure": "Naïve, female Sprague-Dawley Rats (Taconic Farms, Germantown, N.Y.) housed in groups of three were maintained in a climate-controlled room on a 12:12 h light-dark cycle with food and water available ad libitum. Animals weighed approximately 250 g at the time of testing. Rats were fasted overnight (with water available), prior to dosing. Tigecycline stock was prepared fresh on the day of each study in water and diluted in the indicated formulations.\nIntravenous (IV) doses were administered as a bolus injection into the left carotid […] at a dose volume of 1.6 mL/kg. Intraduodenal doses were administered as bolus injections into the duodenum at a dose volume of 1.2 mL/kg.\nFemale rats were maintained in groups of 3 per polycarbonate (or equivalent) shoebox cage with fresh wood chip bedding at 20-22° C. under a 12 hour on/off light:dark cycle. The rats were fasted overnight prior to surgery and anesthetized by intramuscular injection of 0.3 mL fresh ketamine (67 mg/mL)/xylazine (42 mg/mL) in 0.9% saline into the hind flank. After the rats went limp they were injected intraperitoneally (IP) with 0.1 mL ketamine/xylazine. The anesthetic state was maintained by IP injection of ketamine/xylazine on an as needed basis. Animal weights were determined post-anesthesia induction.\nAn indwelling catheter for blood sampling was inserted into the right carotid artery by exposing the trachea with Mayo scissors, clamping the bottom of the […] and tying off the top with surgical suture. The area between was nicked with small sharp scissors and Intramedic polyethylene tubing was inserted into the nicked area. The artery with the tubing was sealed with suture to prevent leakage. A 23-gauge Intramedic Luer Stub Adapter was inserted into the cannula and attached to a 3 way valve which was connected to a 3 cc syringe filled with 0.9% normal saline and a 1 cc syringe filled with 5 U/mL sodium heparin for blood sampling.\nBlood samples were collected in tubes containing 20 μL 180 mM EDTA. The tubes were maintained on ice and then centrifuged at approximately 3000 rpm at 4° C. for 5 minutes. Plasma was harvested immediately after centrifugation of the samples and stored at −20° C. pending analysis.\nMinocycline (VWR international) was used as an internal standard. Sample processing/clean-up of plasma samples was carried out offline by protein precipitation with acidified acetonitrile.\nThe HPLC system consisted of Shimadzu SIL-HTc HPLC system equipped with dual Shimadzu LC-10ADvp isopumps, a Shimadzu CTO-10ASvp column temperature controller and a Shimadzu SPD-10Avp variable wavelength detector. […] Mobile phase A consisted of 23 mM phosphate buffer pH 2.5 with 6 mM 1-octanesulfonic acid, while mobile phase B consisting of pure acetonitrile. […] The mobile phase flow rate was 1.2 mL/min. Detection was performed using the SPD-10Avp variable wavelength detector set at 350 nm, with a sensitivity of 0.001 aufs.\nThe samples were then centrifuged under refrigeration at 13 k rpm for 30 minutes. The supernatant was taken and the liquid was removed to dryness in a turbovap. The samples were then reconstituted in 55 μL 0.1M phosphate buffer, pH 3.8. Samples were maintained at 10° C. while on the autoinjector during sequence. The injection volume was 50 μL. The unknown concentration in rat plasma samples was determined by interpolation of the peak area ratios of analyte:internal standard versus the ratio of their nominal concentrations into the regression line obtained from calibration standards spiked in pooled rat plasma. No regression weighting was used for the calculations. […] The calibration curve covered the range of 0.05 μg/mL to 5.0 μg/mL.\nDue to analytical issues observed in the analyses of earlier study samples, the analytical method was changed slightly for later samples. Mobile phase A was changed to 23 mM phosphate buffer pH 2.5 with 4 mM 1-octanesulfonic acid, while mobile phase B was changed to 90% acetonitrile, 10% water, with 2 mM 1-octanesulfonic acid. […]",
  "key": {"[1]": {"conditions": "IV bolus 0.64 mg/kg, PBS (RA851)"}},
  "data": [
    {"smiles": "CN(C)c1cc(NC(=O)CNC(C)(C)C)c(O)c2c1C[C@H]1C[C@H]3[C@H](N(C)C)C(O)=C(C(N)=O)C(=O)[C@@]3(O)C(O)=C1C2=O", "note": "[Tigecycline]", "values": [
      {"measurement": "AUC(0-t)", "setting": "[1]", "result": 970, "unit": "ng·h/mL"},
      {"measurement": "Cmax", "setting": "[1]", "result": 1790, "unit": "ng/mL"},
      {"measurement": "Tmax", "setting": "[1]", "result": 5, "unit": "min"},
      {"measurement": "concentration at 0 min", "setting": "[1]", "result": 0, "unit": "ng/mL"},
      {"measurement": "concentration at 5 min", "setting": "[1]", "result": 1790, "unit": "ng/mL"},
      {"measurement": "concentration at 10 min", "setting": "[1]", "result": 888, "unit": "ng/mL"},
      {"measurement": "concentration at 20 min", "setting": "[1]", "result": 447, "unit": "ng/mL"},
      {"measurement": "concentration at 30 min", "setting": "[1]", "result": 376, "unit": "ng/mL"},
      {"measurement": "concentration at 60 min", "setting": "[1]", "result": 290, "unit": "ng/mL"},
      {"measurement": "concentration at 120 min", "setting": "[1]", "result": 216, "unit": "ng/mL"},
      {"measurement": "concentration at 240 min", "setting": "IV bolus 0.64 mg/kg, PBS (RA851), 240 min", "result": 116, "unit": "ng/mL"},
      {"measurement": "AUC(0-t)", "setting": "IV bolus 12 mg/kg, PBS (RA853)", "result": 13200, "unit": "ng·h/mL"},
      {"measurement": "Cmax", "setting": "IV bolus 12 mg/kg, PBS (RA853)", "result": 50700, "unit": "ng/mL"},
      {"measurement": "Tmax", "setting": "IV bolus 12 mg/kg, PBS (RA853)", "result": 5, "unit": "min"},
      {"measurement": "concentration at 0 min", "setting": "IV bolus 12 mg/kg, PBS (RA853)", "result": 0, "unit": "ng/mL"},
      {"measurement": "concentration at 5 min", "setting": "IV bolus 12 mg/kg, PBS (RA853)", "result": 50700, "unit": "ng/mL"},
      {"measurement": "concentration at 10 min", "setting": "IV bolus 12 mg/kg, PBS (RA853)", "result": 26200, "unit": "ng/mL"},
      {"measurement": "concentration at 20 min", "setting": "IV bolus 12 mg/kg, PBS (RA853)", "result": 9310, "unit": "ng/mL"},
      {"measurement": "concentration at 30 min", "setting": "IV bolus 12 mg/kg, PBS (RA853)", "result": 5760, "unit": "ng/mL"},
      {"measurement": "concentration at 60 min", "setting": "IV bolus 12 mg/kg, PBS (RA853)", "result": 2610, "unit": "ng/mL"},
      {"measurement": "concentration at 120 min", "setting": "IV bolus 12 mg/kg, PBS (RA853)", "result": 1870, "unit": "ng/mL"},
      {"measurement": "AUC(0-t)", "setting": "RA869, IV, 0.6 mg/kg", "result": 132, "unit": "ng·h/mL"},
      {"measurement": "Cmax", "setting": "RA869, IV, 0.6 mg/kg", "result": 369, "unit": "ng/mL"},
      {"measurement": "Tmax", "setting": "RA869, IV, 0.6 mg/kg", "result": 7.5, "unit": "min"}
    ]}
  ]
}
